Experimental data as given in US20240366639A1, “HETEROCYCLIC GLP-1 AGONISTS” (GASHERBRUM BIO, INC., priority 2021, published 2024).
Where two headings read alike, the source gives them in different places.

Target: T1, GLP-1 Receptor (GLP1R) (Homo sapiens, UniProt P43220)
T1 construct: host or cells: HEK293/GLP1R/CRE-LUC
Test: GLP-1R agonist cAMP stimulation assay (Method 3)
Format: cell-based
Details: HEK293/GLP1R/CRE-LUC cells (HDB), Method 3, 30 min incubation
Procedure: Method 3: Activation of GLP-1 receptor is known to stimulate cyclic AMP (cAMP) production in cells which indicates primary coupling to the Gαs subunit of the G protein heterotrimeric complex.
To optimize functional activity directed toward Gαs coupling, a HEK293/CRE-Luc cell line developed by HDB stably expressing the GLP-1 Receptor was used, 200× concentration of compound working solutions were prepared (Agilent Technologies Bravo) with 1/2 log serial dilution in 384-well Echo LDV plate (Labcyte, Cat #LP-0200). 50 nL/well 200× concentration of compound working solutions were moved to 384-well white low volume plate (Greiner, Cat #784075) using Labcyte ECHO550. 1×10^5 cells/mL HEK293/GLP1R/CRE-LUC(HD Biosciences) cell suspensions prepared with assay buffer [DPBS containing 0.5 mM IBMX (Sigma, Cat #15879) and 0.1% BSA (GENVIEW, Cat #FA016-100 g)], 10 μL cell suspensions were added to each well of previous generated assay plate which already contains 50 nL compound at 200× concentration using ThermoFisher Multidrop Combi (1000 cells/well). Seal the plate and incubate at 37° C. with 5% CO2 for 30 min.
After incubation the cAMP assay signal was generated using cAMP dynamic 2 Kit (Cisbio). 5 μL cAMP-d2 working solution was added to each well, followed with 5 μL Anti-cAMP antibody-cryptate working solution added to each well using ThermoFisher Multidrop Combi. Incubate at room temperature for 1 hour protected from light. Read the fluorescence at 665 nm and 615 nm with Reader PerkinElmer EnVision.

[1] = read-out: GLP1R cAMP Stimulation DR: EC50 (nM) [Species: Human, Assay Cell Line: HDB]
[2] = read-out: GLP1R cAMP Stimulation DR: pEC50 (M) [Species: Human, Assay Cell Line: HDB] (converted)

T1 sequence (P43220 24-463): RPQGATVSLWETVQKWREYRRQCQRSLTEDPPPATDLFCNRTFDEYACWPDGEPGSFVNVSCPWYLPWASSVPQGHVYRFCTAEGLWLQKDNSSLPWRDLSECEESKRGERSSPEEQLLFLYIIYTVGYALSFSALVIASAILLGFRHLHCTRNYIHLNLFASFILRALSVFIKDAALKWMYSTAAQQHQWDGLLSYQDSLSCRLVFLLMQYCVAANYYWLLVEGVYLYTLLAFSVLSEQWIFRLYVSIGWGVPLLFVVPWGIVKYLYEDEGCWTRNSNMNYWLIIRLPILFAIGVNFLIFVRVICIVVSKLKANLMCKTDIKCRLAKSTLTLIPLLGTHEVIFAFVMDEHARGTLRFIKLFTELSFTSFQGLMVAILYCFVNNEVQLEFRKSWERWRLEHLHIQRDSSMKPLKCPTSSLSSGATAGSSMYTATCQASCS

Row | EC50 [1] [nM] | EC50 [2] [nM] | Compound
1 | < 0.1 | ≤ 0.1 | Cc1cc(-n2nc3c(c2-n2ccn(-c4ccc(P(=O)(C(C)C)C(C)C)cc4)c2=O)[C@H](C)N(C(=O)c2cc4cc(C5CCOCC5)ccc4n2[C@@]2(c4noc(=O)[nH]4)C[C@@H]2C)CC3)cc(C)c1F [Compound 128a, 3-((1S,2S)-1-(2-((S)-3-(3-(4-(diisopropylphosphoryl)phenyl)-2-oxo-2,3-dihydro-1H-imidazol-1-yl)-2-(4-fluoro-3,5-dimethylphenyl)-4-methyl-4,5,6,7-tetrahydro-2H-pyrazolo[4,3-c]pyridine-5-carbonyl)-5-(tetrahydro-2H-pyran-4-yl)-1H-indol-1-yl)-2-methylcyclopropyl)-1,2,4-oxadiazol-5(4H)-one]
2 | < 0.1 | ≤ 0.1 | CCP(=O)(CC)c1ccc(-n2ccn(-c3c4c(nn3-c3cc(C)c(F)c(C)c3)CCN(C(=O)c3cc5cc(C6CCOCC6)ccc5n3[C@@]3(c5noc(=O)[nH]5)C[C@@H]3C)[C@H]4C)c2=O)cc1 [Compound 129a, 3-((1S,2S)-1-(2-((S)-3-(3-(4-(diethylphosphoryl)phenyl)-2-oxo-2,3-dihydro-1H-imidazol-1-yl)-2-(4-fluoro-3,5-dimethylphenyl)-4-methyl-4,5,6,7-tetrahydro-2H-pyrazolo[4,3-c]pyridine-5-carbonyl)-5-(tetrahydro-2H-pyran-4-yl)-1H-indol-1-yl)-2-methylcyclopropyl)-1,2,4-oxadiazol-5(4H)-one]
3 | 0.1 to 0.2 | 0.1 to 1 | CNc1cc(-n2ccn(-c3c4c(nn3-c3cc(C)c(F)c(C)c3)CCN(C(=O)c3cc5cc(C6CCOCC6)ccc5n3[C@@]3(c5noc(=O)[nH]5)C[C@@H]3C)[C@H]4C)c2=O)ccc1P(=O)(C1CC1)C1CC1 [Compound 132a, 3-((1S,2S)-1-(2-((S)-3-(3-(4-(dicyclopropylphosphoryl)-3-(methylamino)phenyl)-2-oxo-2,3-dihydro-1H-imidazol-1-yl)-2-(4-fluoro-3,5-dimethylphenyl)-4-methyl-4,5,6,7-tetrahydro-2H-pyrazolo[4,3-c]pyridine-5-carbonyl)-5-(tetrahydro-2H-pyran-4-yl)-1H-indol-1-yl)-2-methylcyclopropyl)-1,2,4-oxadiazol-5(4H)-one]
4 | 0.1 to 0.2 | 0.1 to 1 | CCP(=O)(CC)c1ccc(-n2ccn(-c3c4c(nn3-c3cc(C)c(F)c(C)c3)CCN(C(=O)c3cc5cc(C6CCC(F)(F)CC6)ccc5n3[C@@]3(c5noc(=O)[nH]5)C[C@@H]3C)[C@H]4C)c2=O)cc1NC [Compound 133a, 3-((1S,2S)-1-(2-((S)-3-(3-(4-(diethylphosphoryl)-3-(methylamino)phenyl)-2-oxo-2,3-dihydro-1H-imidazol-1-yl)-2-(4-fluoro-3,5-dimethylphenyl)-4-methyl-4,5,6,7-tetrahydro-2H-pyrazolo[4,3-c]pyridine-5-carbonyl)-5-(4,4-difluorocyclohexyl)-1H-indol-1-yl)-2-methylcyclopropyl)-1,2,4-oxadiazol-5(4H)-one]
5 | < 0.1 | ≤ 0.1 | CCP(=O)(CC)c1ccc(-n2ccn(-c3c4c(nn3-c3cc(C)c(F)c(C)c3)CCN(C(=O)c3cc5cc(C6CCOCC6)ccc5n3C3(c5noc(=O)[nH]5)CC3)[C@H]4C)c2=O)cc1NC [Compound 135a, (S)-3-(1-(2-(3-(3-(4-(diethylphosphoryl)-3-(methylamino)phenyl)-2-oxo-2,3-dihydro-1H-imidazol-1-yl)-2-(4-fluoro-3,5-dimethylphenyl)-4-methyl-4,5,6,7-tetrahydro-2H-pyrazolo[4,3-c]pyridine-5-carbonyl)-5-(tetrahydro-2H-pyran-4-yl)-1H-indol-1-yl)cyclopropyl)-1,2,4-oxadiazol-5(4H)-one]
6 | 0.2 to 0.5 | 0.1 to 1 | CCP(=O)(CC)c1ccc(-n2ccn(-c3c4c(nn3-c3cc(C)c(F)c(C)c3)CCN(C(=O)c3cc5cc(C6CCOCC6)ccc5n3[C@@]3(c5noc(=O)[nH]5)C[C@@H]3C)[C@H]4C)c2=O)cc1OC(F)F [Compound 136a, 3-((1S,2S)-1-(2-((S)-3-(3-(4-(diethylphosphoryl)-3-(difluoromethoxy)phenyl)-2-oxo-2,3-dihydro-1H-imidazol-1-yl)-2-(4-fluoro-3,5-dimethylphenyl)-4-methyl-4,5,6,7-tetrahydro-2H-pyrazolo[4,3-c]pyridine-5-carbonyl)-5-(tetrahydro-2H-pyran-4-yl)-1H-indol-1-yl)-2-methylcyclopropyl)-1,2,4-oxadiazol-5(4H)-one]
7 | < 0.1 | ≤ 0.1 | CCP(=O)(CC)c1ccc(-n2ccn(-c3c4c(nn3-c3cc(C)c(F)c(C)c3)CCN(C(=O)c3cc5cc(C6CCOCC6)ccc5n3[C@@]3(c5noc(=O)[nH]5)C[C@@H]3C)[C@H]4C)c2=O)cc1N [Compound 138a, 3-((1S,2S)-1-(2-((S)-3-(3-(3-amino-4-(diethylphosphoryl)phenyl)-2-oxo-2,3-dihydro-1H-imidazol-1-yl)-2-(4-fluoro-3,5-dimethylphenyl)-4-methyl-4,5,6,7-tetrahydro-2H-pyrazolo[4,3-c]pyridine-5-carbonyl)-5-(tetrahydro-2H-pyran-4-yl)-1H-indol-1-yl)-2-methylcyclopropyl)-1,2,4-oxadiazol-5(4H)-one]
8 | < 0.1 | ≤ 0.1 | CCP(=O)(CC)c1ncc(-n2ccn(-c3c4c(nn3-c3cc(C)c(F)c(C)c3)CCN(C(=O)c3cc5cc(C6CCOCC6)ccc5n3[C@@]3(c5noc(=O)[nH]5)C[C@@H]3C)[C@H]4C)c2=O)cc1NC [Compound 139a, 3-((1S,2S)-1-(2-((S)-3-(3-(6-(diethylphosphoryl)-5-(methylamino)pyridin-3-yl)-2-oxo-2,3-dihydro-1H-imidazol-1-yl)-2-(4-fluoro-3,5-dimethylphenyl)-4-methyl-4,5,6,7-tetrahydro-2H-pyrazolo[4,3-c]pyridine-5-carbonyl)-5-(tetrahydro-2H-pyran-4-yl)-1H-indol-1-yl)-2-methylcyclopropyl)-1,2,4-oxadiazol-5(4H)-one]
9 | 0.5 to 5 | 0.1 to 1 | CCP(=O)(CC)c1c(C)cc(-n2ccn(-c3c4c(nn3-c3cc(C)c(F)c(C)c3)CCN(C(=O)c3cc5cc(C6CCOCC6)ccc5n3[C@@]3(c5noc(=O)[nH]5)C[C@@H]3C)[C@H]4C)c2=O)cc1NC [Compound 140a, 3-((1S,2S)-1-(2-((S)-3-(3-(4-(diethylphosphoryl)-3-methyl-5-(methylamino)phenyl)-2-oxo-2,3-dihydro-1H-imidazol-1-yl)-2-(4-fluoro-3,5-dimethylphenyl)-4-methyl-4,5,6,7-tetrahydro-2H-pyrazolo[4,3-c]pyridine-5-carbonyl)-5-(tetrahydro-2H-pyran-4-yl)-1H-indol-1-yl)-2-methylcyclopropyl)-1,2,4-oxadiazol-5(4H)-one]
10 | < 0.1 | ≤ 0.1 | CNc1cc(-n2ccn(-c3c4c(nn3-c3cc(C)c(F)c(C)c3)CCN(C(=O)c3cc5cc(C6CCOCC6)ccc5n3[C@@]3(c5noc(=O)[nH]5)C[C@@H]3C)[C@H]4C)c2=O)ccc1P(=O)(C(C)C)C(C)C [Compound 141a, 3-((1S,2S)-1-(2-((S)-3-(3-(4-(diisopropylphosphoryl)-3-(methylamino)phenyl)-2-oxo-2,3-dihydro-1H-imidazol-1-yl)-2-(4-fluoro-3,5-dimethylphenyl)-4-methyl-4,5,6,7-tetrahydro-2H-pyrazolo[4,3-c]pyridine-5-carbonyl)-5-(tetrahydro-2H-pyran-4-yl)-1H-indol-1-yl)-2-methylcyclopropyl)-1,2,4-oxadiazol-5(4H)-one]
